*1 amine or outer side, *2 acyl side, *3 side chain or, on linkers, in order; H or OH if unused. Where a SMILES comes first, the peptide text is derived from it. Bridges are numbered along the chain shown (N, C = ends). [ ]: non-standard residue; d: D form. NMeY = CN[C@@H](Cc1ccc(O)cc1)C(=O)O; Ethylenediamine = C(CN[*:2])N[*:1]; X1 = O=C(CC1(S[*:2])CCCCC1)[*:1]
Key:
[1] = molecular target: Vasopressin V2 receptor (Rattus norvegicus) (UniProt Q00788); assay: Antidiuretic activity in water-loaded rats
[2] = molecular target: Vasopressin V1 receptor (Rattus norvegicus) (UniProt P48974+P30560); assay: Dose that reduces blood pressure response in rats; assay type: functional
[3] = molecular target: Vasopressin V2 receptor (Rattus norvegicus) (UniProt Q00788); assay: Dose that reduces urine flow in water-loaded rats; assay type: functional
[4] = Ratio of antidiuretic V2 effective dose to that of vasopressin V1 effective dose; assay type: functional, Urine

Vasopressin V1 receptor (Rattus norvegicus), sequence (P30560 whole entry, looked up): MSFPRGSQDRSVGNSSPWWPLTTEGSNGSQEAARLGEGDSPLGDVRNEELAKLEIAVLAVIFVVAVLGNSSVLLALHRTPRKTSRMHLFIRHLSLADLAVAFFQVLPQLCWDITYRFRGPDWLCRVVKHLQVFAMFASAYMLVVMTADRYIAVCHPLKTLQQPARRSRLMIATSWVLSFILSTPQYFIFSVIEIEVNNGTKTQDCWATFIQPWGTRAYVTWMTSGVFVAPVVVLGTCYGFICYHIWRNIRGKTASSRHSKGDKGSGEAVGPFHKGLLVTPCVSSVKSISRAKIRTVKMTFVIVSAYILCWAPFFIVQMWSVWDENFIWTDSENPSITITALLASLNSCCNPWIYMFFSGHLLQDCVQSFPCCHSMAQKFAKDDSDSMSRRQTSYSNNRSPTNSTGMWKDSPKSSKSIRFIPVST
Vasopressin V1 receptor (Rattus norvegicus), sequence (P48974 whole entry, looked up): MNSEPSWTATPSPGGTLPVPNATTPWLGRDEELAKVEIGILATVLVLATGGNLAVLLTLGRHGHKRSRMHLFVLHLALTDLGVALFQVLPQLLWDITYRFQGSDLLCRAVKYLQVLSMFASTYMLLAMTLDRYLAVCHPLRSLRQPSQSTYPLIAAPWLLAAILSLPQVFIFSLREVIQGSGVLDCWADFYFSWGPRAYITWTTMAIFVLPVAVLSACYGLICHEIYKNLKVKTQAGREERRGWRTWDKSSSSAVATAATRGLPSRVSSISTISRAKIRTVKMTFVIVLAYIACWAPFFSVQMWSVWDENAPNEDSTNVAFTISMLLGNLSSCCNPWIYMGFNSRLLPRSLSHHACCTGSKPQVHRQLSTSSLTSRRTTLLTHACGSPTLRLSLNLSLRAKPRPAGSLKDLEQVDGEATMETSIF
Vasopressin V2 receptor (Rattus norvegicus), sequence (Q00788 whole entry): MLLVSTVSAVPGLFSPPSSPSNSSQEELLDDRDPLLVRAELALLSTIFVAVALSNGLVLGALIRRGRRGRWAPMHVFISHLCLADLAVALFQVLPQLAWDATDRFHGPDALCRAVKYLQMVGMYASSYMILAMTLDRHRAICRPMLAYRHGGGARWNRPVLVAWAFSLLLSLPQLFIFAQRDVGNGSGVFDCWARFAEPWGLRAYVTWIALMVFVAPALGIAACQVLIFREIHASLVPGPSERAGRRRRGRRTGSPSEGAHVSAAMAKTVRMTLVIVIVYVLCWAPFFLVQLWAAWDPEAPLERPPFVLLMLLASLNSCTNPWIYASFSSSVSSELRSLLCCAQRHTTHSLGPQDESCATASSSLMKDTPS

| SMILES | Antidiuretic activity [1] | Effective dose [2] | Effective dose [3] | Ratio [4] |
| --- | --- | --- | --- | --- |
| CN1C(=O)CC2(CCCCC2)SSC[C@H](C(=O)N2CCC[C@H]2C(=O)N[C@@H](CCCN=C(N)N)C(=O)NCC(N)=O)NC(=O)[C@H](CC(N)=O)NC(=O)[C@H](CCC(N)=O)NC(=O)[C@H](Cc2ccccc2)NC(=O)[C@@H]1Cc1ccc(O)cc1 ([NMeY]FQN[dC]PRG-NH2; linker N-5 via X1) | 0.31 units/mg | 0.16 nM/kg | – | – |
| CN1C(=O)CC(C)(C)SSC[C@H](C(=O)N2CCC[C@H]2C(=O)N[C@@H](CCCN=C(N)N)C(=O)N[C@@H](Cc2ccc(O)cc2)C(N)=O)NC(=O)[C@@H](CC(N)=O)NC(=O)[C@H](CCC(N)=O)NC(=O)[C@@H](Cc2ccccc2)NC(=O)[C@@H]1Cc1ccc(O)cc1 | 0.029 units/mg | 0.38 nM/kg | – | – |
| CN1C(=O)CC2(CCCCC2)SSC[C@H](C(=O)N2CCC[C@H]2C(=O)N[C@@H](CCCN=C(N)N)C(=O)NCC(=O)NCCN)NC(=O)[C@@H](CC(N)=O)NC(=O)[C@H](CCC(N)=O)NC(=O)[C@@H](Cc2ccccc2)NC(=O)[C@@H]1Cc1ccc(O)cc1 | – | 0.27 nM/kg | 16 nM/kg | – |
| CN1C(=O)CC(C)(C)SSC[C@H](C(=O)N2CCC[C@H]2C(=O)N[C@@H](CCCN=C(N)N)C(=O)N[C@@H](CCCN=C(N)N)C(N)=O)NC(=O)[C@@H](CC(N)=O)NC(=O)[C@H](CCC(N)=O)NC(=O)[C@@H](Cc2ccccc2)NC(=O)[C@@H]1Cc1ccc(O)cc1 | 0.083 units/mg | – | – | – |
| CN1C(=O)CC2(CCCCC2)SSC[C@H](C(=O)N2CCC[C@H]2C(=O)N[C@@H](CCCN=C(N)N)C(=O)N[C@@H](CCCN=C(N)N)C(N)=O)NC(=O)[C@@H](CC(N)=O)NC(=O)[C@H](CCC(N)=O)NC(=O)[C@@H](Cc2ccccc2)NC(=O)[C@@H]1Cc1ccc(O)cc1 | – | 0.12 nM/kg | 18 nM/kg | ~150 |
| CNC(=O)[C@H](CCCN=C(N)N)NC(=O)[C@@H]1CCCN1C(=O)[C@H]1CSSC2(CCCCC2)CC(=O)N(C)[C@@H](Cc2ccc(O)cc2)C(=O)N[C@H](Cc2ccccc2)C(=O)N[C@@H](CCC(N)=O)C(=O)N[C@H](CC(N)=O)C(=O)N1 | – | 0.12 nM/kg | 84 nM/kg | – |
| C[C@H](NC(=O)[C@H](CCCN=C(N)N)NC(=O)[C@@H]1CCCN1C(=O)[C@H]1CSSC2(CCCCC2)CC(=O)N(C)[C@@H](Cc2ccc(O)cc2)C(=O)N[C@H](Cc2ccccc2)C(=O)N[C@@H](CCC(N)=O)C(=O)N[C@H](CC(N)=O)C(=O)N1)C(N)=O | – | 0.13 nM/kg | 77 nM/kg | – |
| C[C@H](O)[C@H](NC(=O)[C@H](CCCN=C(N)N)NC(=O)[C@@H]1CCCN1C(=O)[C@H]1CSSC2(CCCCC2)CC(=O)N(C)[C@@H](Cc2ccc(O)cc2)C(=O)N[C@H](Cc2ccccc2)C(=O)N[C@@H](CCC(N)=O)C(=O)N[C@H](CC(N)=O)C(=O)N1)C(N)=O | – | 0.22 nM/kg | 45 nM/kg | – |
| CC(C)[C@H](NC(=O)[C@H](CCCN=C(N)N)NC(=O)[C@@H]1CCCN1C(=O)[C@H]1CSSC(C)(C)CC(=O)N(C)[C@@H](Cc2ccc(O)cc2)C(=O)N[C@H](Cc2ccccc2)C(=O)N[C@@H](CCC(N)=O)C(=O)N[C@H](CC(N)=O)C(=O)N1)C(N)=O | 0.039 units/mg | 0.6 nM/kg | – | – |
| CN1C(=O)CC2(CCCCC2)SSC[C@H](C(=O)N2CCC[C@H]2C(=O)N[C@@H](CCCN=C(N)N)C(=O)NCCN)NC(=O)[C@@H](CC(N)=O)NC(=O)[C@H](CCC(N)=O)NC(=O)[C@@H](Cc2ccccc2)NC(=O)[C@@H]1Cc1ccc(O)cc1 | – | 0.12 nM/kg | 33 nM/kg | – |
| COc1ccc(C[C@@H]2NC(=O)CC3(CCCCC3)SSC[C@@H](C(=O)N3CCC[C@H]3C(=O)N[C@@H](CCCN=C(N)N)C(=O)N[C@H](C(N)=O)[C@@H](C)O)NC(=O)[C@H](CC(N)=O)NC(=O)[C@H](CCC(N)=O)NC(=O)[C@H](Cc3ccccc3)NC2=O)cc1 (Y(Me)FQNCPRT-NH2; linker N-5 via X1) | – | – | – | ~205 |
| CC(C)[C@H](NC(=O)[C@H](CCCN=C(N)N)NC(=O)[C@@H]1CCCN1C(=O)[C@H]1CSSC2(CCCCC2)CC(=O)N(C)[C@@H](Cc2ccc(O)cc2)C(=O)N[C@H](Cc2ccccc2)C(=O)N[C@@H](CCC(N)=O)C(=O)N[C@H](CC(N)=O)C(=O)N1)C(N)=O | – | 0.2 nM/kg | 115 nM/kg | – |
| COc1ccc(C[C@@H]2NC(=O)CC3(CCCCC3)SSC[C@@H](C(=O)N3CCC[C@H]3C(=O)N[C@@H](CCCN=C(N)N)C(=O)NCC(=O)NCCN)NC(=O)[C@H](CC(N)=O)NC(=O)[C@H](CCC(N)=O)NC(=O)[C@H](Cc3ccccc3)NC2=O)cc1 (Y(Me)FQNCPRG-Ethylenediamine; linker N-5 via X1) | – | – | – | ~60 |
| COc1ccc(C[C@@H]2NC(=O)CC3(CCCCC3)SSC[C@@H](C(=O)N3CCC[C@H]3C(=O)N[C@@H](CCCN=C(N)N)C(=O)N[C@H](C(N)=O)C(C)C)NC(=O)[C@H](CC(N)=O)NC(=O)[C@H](CCC(N)=O)NC(=O)[C@H](Cc3ccccc3)NC2=O)cc1 (Y(Me)FQNCPRV-NH2; linker N-5 via X1) | – | – | – | ~575 |

From ChEMBL document CHEMBL1125295, “Synthesis and some pharmacological properties of potent and selective antagonists of the vasopressor (V1-receptor) response to arginine-vasopressin” (J Med Chem, 1992)
